Data taken from ChEMBL document CHEMBL5338785, “Development of Aromatic-Linked Diamino Acid Antimicrobial Peptide Mimics with Low Hemolytic Toxicity and Excellent Activity against Methicillin-Resistant Staphylococcus aureus (MRSA)” (J Med Chem, 2023).
Activity calls are given as the source filed them. The rule behind the calls is not given here.

Key:
Staphylococcus aureus [1] = experiment: Antibacterial activity against methicillin-resistant Staphylococcus aureus assessed as bacterial growth inhibition; assay type: functional
[2] = Selectivity index, ratio of HC50 for hemolytic activity in mammalian RBC to MIC for antibacterial activity against methicillin-resistant Staphylococcus aureus assessed as bacterial growth inhibition; assay type: toxicity; settings: mammalian red blood cells
[3] = Hemolytic activity in mammalian RBC assessed as hemolysis; assay type: toxicity, cell-based, Erythrocyte; settings: mammalia, mammalian red blood cells
[4] = Hemolytic activity in sheep RBC assessed as hemolysis incubated for 1 hr by microplate reader method; assay type: toxicity, cell-based, Ovis aries, Erythrocyte; settings: sheep red blood cells
[5] = Selectivity index, ratio of HC50 for hemolytic activity in human erythrocytes to MIC for antibacterial activity against methicillin-resistant Staphylococcus aureus assessed as bacterial growth inhibition; assay type: toxicity, cell-based
Escherichia coli [6] = experiment: Antibacterial activity against Escherichia coli assessed as bacterial growth inhibition incubated for 18 hrs by CLSI protocol based Mueller-Hinton broth assay; assay type: functional; settings: Escherichia coli, read-out: MIC
[7] = Hemolytic activity in human erythrocytes assessed as hemolysis; assay type: toxicity, cell-based, Erythrocyte
Enterococcus faecalis [8] = experiment: Antibacterial activity against Enterococcus faecalis assessed as bacterial growth inhibition incubated for 18 hrs by CLSI protocol based Mueller-Hinton broth assay; assay type: functional; settings: Enterococcus faecalis, 18 h, read-out: MIC
[9] = Cytotoxicity against HUVEC cells assessed as reduction in cell viability incubated for 72 hrs by CCK8 assay; assay type: toxicity, cell-based; settings: human
Staphylococcus aureus [10] = experiment: Antibacterial activity against methicillin-resistant Staphylococcus aureus assessed as bacterial growth inhibition incubated for 18 hrs by CLSI protocol based Mueller-Hinton broth assay; assay type: functional; settings: Staphylococcus aureus, read-out: MIC
[11] = test system: Stenotrophomonas maltophilia; experiment: Antibacterial activity against Stenotrophomonas maltophilia assessed as bacterial growth inhibition incubated for 18 hrs by CLSI protocol based Mueller-Hinton broth assay; assay type: functional; settings: Stenotrophomonas maltophilia, read-out: MIC
[12] = Selectivity index, ratio of HC50 for hemolytic activity in sheep RBC to MIC for antibacterial activity against methicillin-resistant Staphylococcus aureus assessed as bacterial growth inhibition; assay type: toxicity; settings: sheep red blood cells
Escherichia coli [13] = experiment: Antibacterial activity against Escherichia coli assessed as bacterial growth inhibition; assay type: functional
[14] = test system: Stenotrophomonas maltophilia; experiment: Antibacterial activity against Stenotrophomonas maltophilia assessed as bacterial growth inhibition; assay type: functional
Enterococcus faecalis [15] = experiment: Antibacterial activity against Enterococcus faecalis assessed as bacterial growth inhibition; assay type: functional
[16] = Toxicity in HUVEC cells assessed as morphological changes at 16 ug/ml incubated for 24 hrs by optical microscopy imaging analysis; assay type: cell-based; settings: human, dose 16 µg/ml
Staphylococcus aureus [17] = experiment: Bactericidal activity against methicillin-resistant Staphylococcus aureus assessed as decrease in viable count at 2 to 4 ug/ml by time-killing kinetics assay; assay type: functional, organism-based; settings: dose 2-4 µg/ml, time <= 4.0 hrs, TDE = time-dependent effect
Escherichia coli [18] = experiment: Antibacterial activity against carbapenems-resistant Escherichia coli expressing blaNDM-5 clinical isolates assessed as bacterial growth inhibition incubated for 18 hrs by CLSI protocol based Mueller-Hinton broth assay; assay type: functional
Staphylococcus aureus [19] = experiment: Antibacterial activity against methicillin-resistant Staphylococcus aureus assessed as bacterial growth inhibition in presence of phosphatidylcholine incubated for 18 hrs by checkerboard microdilution assay; assay type: functional, organism-based
Staphylococcus aureus [20] = experiment: Induction of intracellular ROS accumulation in methicillin-resistant Staphylococcus aureus assessed as fold increase in fluorescence intensity at 0.5 ug/ml incubated for 30 mins by DCFH-DA dye based fluorescence assay; assay type: functional; settings: dose 0.5 µg/ml
Staphylococcus aureus [21] = experiment: Bactericidal activity against methicillin-resistant Staphylococcus aureus assessed as reduction in turbidity at 2 to 4 ug/ml measured after 6 hrs; assay type: functional, organism-based; settings: dose 2-4 µg/ml
Pseudomonas aeruginosa = experiment: Antibacterial activity against carbapenems-resistant Pseudomonas aeruginosa expressing blaVIM-1 clinical isolates assessed as bacterial growth inhibition incubated for 18 hrs by CLSI protocol based Mueller-Hinton broth assay; assay type: functional
Staphylococcus aureus [22] = experiment: In vivo antibacterial activity against methicillin-resistant Staphylococcus aureus infected in SPF Kunming mouse assessed as reduction in amount of bacteria measure per abscess at 5 mg/kg ,ip administered every 12 hrs for 3 consecutive days; assay type: functional; settings: time 3 day
[23] = Selectivity index, ratio of HC50 for hemolytic activity in sheep RBC to IC50 for antibacterial activity against Salmonella enterica assessed as bacterial growth inhibition; settings: sheep red blood cells
Staphylococcus aureus [24] = experiment: In vivo antibacterial activity against methicillin-resistant Staphylococcus aureus infected in SPF Kunming mouse assessed as reduction in neutrophils in skin tissue at 10 mg/kg ,ip administered every 12 hrs for 3 consecutive days; assay type: functional, organism-based; settings: time 3.0 day
Staphylococcus aureus [25] = experiment: Induction of morphological changes in methicillin-resistant Staphylococcus aureus assessed as appearance of shrunken cell surface at 8 ug/ml incubated for 4 hrs by SEM analysis; assay type: functional, organism-based; settings: dose 8.0 µg/ml
[26] = Hemolytic activity in mammalian RBC assessed as hemolysis at 320 ug/ml incubated for 1 hr by microplate reader analysis; assay type: toxicity, cell-based, Erythrocyte; settings: mammalia, mammalian red blood cells, at 320 µg/mL, read-out: Activity
Staphylococcus aureus [27] = experiment: In vivo antibacterial activity against methicillin-resistant Staphylococcus aureus infected in SPF Kunming mouse assessed as reduction in amount of bacteria measured per abscess at 10 mg/kg ,ip administered every 12 hrs for 3 consecutive days; assay type: functional; settings: time 3 day
Citrobacter freundii = experiment: Antibacterial activity against carbapenems-resistant Citrobacter freundii expressing blaNDM-1 clinical isolates assessed as bacterial growth inhibition incubated for 18 hrs by CLSI protocol based Mueller-Hinton broth assay; assay type: functional
[28] = Toxicity in SPF Kunming mouse assessed as lethal dose administered for 3 days; settings: in vivo, 72 h, time 3 day
Staphylococcus aureus [29] = experiment: Induction of intracellular ROS accumulation in methicillin-resistant Staphylococcus aureus assessed as increase in fluorescence intensity incubated for 30 mins by DCFH-DA dye based fluorescence assay; assay type: functional, organism-based; settings: dose 0.125-8 µg/ml
Staphylococcus aureus [30] = experiment: Induction of morphological changes in methicillin-resistant Staphylococcus aureus assessed as appearance of wrinkled cell surface at 8 ug/ml incubated for 4 hrs by SEM analysis; assay type: functional, organism-based; settings: dose 8.0 µg/ml
Staphylococcus aureus [31] = experiment: Bactericidal activity against methicillin-resistant Staphylococcus aureus assessed as decrease in viable count measured up to 4 hrs by time-killing kinetics assay; assay type: functional, organism-based; settings: dose 2-4 µg/ml
Enterococcus faecium = experiment: Antibacterial activity against Enterococcus faecium clinical isolates assessed as bacterial growth inhibition incubated for 18 hrs by CLSI protocol based Mueller-Hinton broth assay; assay type: functional
Staphylococcus aureus [32] = experiment: Antibacterial activity against methicillin-resistant Staphylococcus aureus assessed as bacterial growth inhibition in presence of phosphoethanolamine incubated for 18 hrs by checkerboard microdilution assay; assay type: functional, organism-based
[33] = Selectivity index, ratio of HC50 for hemolytic activity in sheep RBC to IC50 for antibacterial activity against Enterococcus faecalis assessed as bacterial growth inhibition; assay type: toxicity; settings: sheep red blood cells
Staphylococcus aureus [34] = experiment: Induction of cytoplasmic membrane depolarization in methicillin-resistant Staphylococcus aureus assessed as fold increase in fluorescence intensity at 16 ug/ml measured at 1 min interval for 16 mins by DiSC3(5) dye based fluorescence method; assay type: functional; settings: dose 16 µg/ml
Staphylococcus aureus [35] = experiment: Antibacterial activity against methicillin-resistant Staphylococcus aureus assessed as bacterial growth inhibition in presence of phosphatidylglycerol incubated for 18 hrs by checkerboard microdilution assay; assay type: functional, organism-based
[36] = Metabolic stability in SPF Kunming mouse assessed as half life at 5 mg/kg/day, iv; assay type: ADME, organism-based; settings: in vivo
[37] = Selectivity index, ratio of HC50 for hemolytic activity in sheep RBC to IC50 for antibacterial activity against Escherichia coli assessed as bacterial growth inhibition; assay type: toxicity; settings: sheep red blood cells
Staphylococcus aureus [38] = experiment: Antibacterial activity against methicillin-resistant Staphylococcus aureus assessed as fold decrease in MIC in presence of NAC incubated for 18 hrs by CLSI protocol based Mueller-Hinton broth assay; assay type: functional
Staphylococcus aureus [39] = experiment: Antibacterial activity against methicillin-resistant Staphylococcus aureus clinical isolates assessed as bacterial growth inhibition incubated for 18 hrs by CLSI protocol based Mueller-Hinton broth assay; assay type: functional
Staphylococcus aureus [40] = experiment: Antibacterial activity against methicillin-resistant Staphylococcus aureus assessed as resistance development at 0.5 to 1 ug/ml measured after 20 days by resistance development assay; assay type: functional, organism-based; settings: dose 0.5-1 µg/ml, time 20.0 day
Escherichia coli [41] = experiment: Antibacterial activity against carbapenems-resistant Escherichia coli expressing blaNDM-3 clinical isolates assessed as bacterial growth inhibition incubated for 18 hrs by CLSI protocol based Mueller-Hinton broth assay; assay type: functional
Escherichia coli [42] = experiment: Antibacterial activity against carbapenems-resistant Escherichia coli expressing blaNDM-9 clinical isolates assessed as bacterial growth inhibition incubated for 18 hrs by CLSI protocol based Mueller-Hinton broth assay; assay type: functional
Staphylococcus aureus [43] = experiment: Induction of cytoplasmic membrane depolarization in methicillin-resistant Staphylococcus aureus assessed as enhancement of fluorescence intensity measured at 1 min interval for 16 mins by DiSC3(5) dye based fluorescence method; assay type: functional, organism-based; settings: dose 0.5-16 µg/ml
[44] = Toxicity in HUVEC cells assessed as live cells by measuring increase in green fluorescence at 16 ug/ml incubated for 24 hrs by calcein AM and propidium iodide staining based fuorescence microscopic analysis; assay type: cell-based; settings: human, dose 16 µg/ml
[45] = Selectivity index, ratio of HC50 for hemolytic activity in human RBC to MIC for antibacterial activity against methicillin-resistant Staphylococcus aureus assessed as bacterial growth inhibition; assay type: toxicity; settings: human red blood cells
[46] = Hemolytic activity in human RBC assessed as hemolysis incubated for 1 hr; assay type: toxicity, cell-based, Erythrocyte; settings: human red blood cells
Staphylococcus aureus [47] = experiment: Antibacterial activity against methicillin-resistant Staphylococcus aureus assessed as bacterial growth inhibition incubated for 24 hrs by Luria-Bertani broth based method; assay type: functional

## CCCCCCCC[N+](C)(C)CCCCOc1ccc(OCCCC[N+](C)(C)CCCCCCCC)cc1.[Br-].[Br-]
Staphylococcus aureus [1]
  MIC: 0.25 µg/mL
[2]
  selectivity ratio: 4840
[3]
  HC50: 1210 µg/mL

## CCCCCCN(Cc1ccc(-c2ccc(CN(CCCCCC)C(=O)[C@@H](N)CCCCN)cc2)cc1)C(=O)[C@@H](N)CCCCN.O=C(O)C(F)(F)F.O=C(O)C(F)(F)F.O=C(O)C(F)(F)F.O=C(O)C(F)(F)F
[4]
  HC50 at 1 h: 276 µg/mL
[5]
  selectivity ratio: 74.2
Staphylococcus aureus [1]
  MIC: 3.1 µg/mL
Escherichia coli [6]; 18 h
  MIC: 4 µg/mL
[7]
  HC50: 230 µg/mL
Enterococcus faecalis [8]
  MIC: 2 µg/mL
[9]
  CC50 at 72 h: 14.2 µg/mL
Staphylococcus aureus [10]
  MIC: 2 µg/mL
[11]
  MIC: 4 µg/mL
[12]
  selectivity ratio: 138

## CCCCCCN(CCCCCCCCCCCCN(CCCCCC)C(=O)[C@@H](N)CCCCN)C(=O)[C@@H](N)CCCCN.Cl.Cl.Cl.Cl
Escherichia coli [13]
  MIC: 1 µg/mL
Staphylococcus aureus [1]
  MIC: 2 µg/mL
[14]
  MIC: 1 µg/mL
Enterococcus faecalis [15]
  MIC: 1 µg/mL

## CCCCCCN(CCCOc1ccccc1-c1ccccc1OCCCN(CCCCCC)C(=O)[C@@H](N)CCCCN)C(=O)[C@@H](N)CCCCN.Cl.Cl.Cl.Cl
[16]
  Activity: Non-Toxic
Staphylococcus aureus [17]
  Activity: Tde
Escherichia coli [18]
  MIC: 2 µg/mL
Staphylococcus aureus [19]
  inhibition: inactive
Staphylococcus aureus [20]
  fold change (FC): 3.4
Staphylococcus aureus [21]
  Activity: Active
[4]
  HC50 at 1 h: > 1000 µg/mL
Pseudomonas aeruginosa
  MIC: 2 µg/mL
Staphylococcus aureus [22]
  Activity: 758577.6 CFU
[23]
  selectivity ratio: > 500
Staphylococcus aureus [24]
  Activity: Active
Staphylococcus aureus [25]
  Activity: Active
[26]
  hemolysis at 1 h, 320 ug/ml: < 1%
Staphylococcus aureus [27]
  Activity: 46773.51 CFU
Citrobacter freundii
  MIC: 2 µg/mL
[28]
  LD50: > 200 mg/kg/day
Staphylococcus aureus [29]
  Activity: Dose-Dependent Effect
Escherichia coli [6]
  MIC: 2 µg/mL
Staphylococcus aureus [30]
  Activity: Active
Staphylococcus aureus [31]
  Activity: Dose-Dependent Effect
Enterococcus faecium
  MIC50: 1 µg/mL
  MIC90: 2 µg/mL
Staphylococcus aureus [32]
  inhibition: inactive
[33]
  selectivity ratio: > 2000
Staphylococcus aureus [34]
  fold change (FC): 10
Staphylococcus aureus [35]
  inhibition: Active
[36]
  half-life: 4.21 h
Enterococcus faecalis [8]
  MIC: 0.5 µg/mL
[9]
  CC50 at 72 h: 24.2 µg/mL
[37]
  selectivity ratio: > 500
Staphylococcus aureus [38]
  fold change (FC): 16
Staphylococcus aureus [10]
  MIC: 0.5 µg/mL
Staphylococcus aureus [39]
  MIC50: 1 µg/mL
  MIC90: 2 µg/mL
Staphylococcus aureus [40]
  Activity: Active
Escherichia coli [41]
  MIC: 2 µg/mL
Escherichia coli [42]
  MIC: 2 µg/mL
Staphylococcus aureus [43]
  Activity: Active
[11]
  MIC: 2 µg/mL
[44]
  Activity: Non-Toxic
[12]
  selectivity ratio: > 2000

## CCCCCCCC[N+](C)(C)CC(=O)NCCCCCCNC(=O)C[N+](C)(C)CCCCCCCC.[Br-].[Br-]
[45]
  selectivity ratio: 410
[46]
  HC50 at 1 h: 780 µg/mL
Staphylococcus aureus [47]
  MIC: 1.9 µg/mL
